Source: patent publication US10131652B2, “Pyrimidinyloxy benzene derivatives as herbicides” (E. I. DU PONT DE NEMOURS AND COMPANY, priority 2014, dated 2018)

Legend:
Format in all cases: in vivo
[1] = tested on: Italian ryegrass (Lolium multiflorum); assay: Test B pre-/postemergence plant response
How it was run: (§1)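 Scoring used a 0–100 scale (100 = complete control) by visual comparison with untreated plants after approximately 10 days in the greenhouse. Compounds, in surfactant-containing non-phytotoxic solvent, were sprayed onto soil at planting or onto 2–10 cm seedlings.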

kochia (Kochia scoparia) [2] = assay: Test B pre-/postemergence plant response
How it was run: as §1

[3] = tested on: ragweed (common ragweed, Ambrosia elatior); assay: Test B pre-/postemergence plant response
How it was run: as §1

kochia (Kochia scoparia) [4] = assay: Test D postemergence plant response; settings: for Kochia plant response rating: 31 g ai/ha, scale 0 to 100 (0 no effect, 100 complete control); for Plant response rating, Kochia: scale 0 to 100, 0 no effect, 100 complete control
How it was run: (§2)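 Visual scoring from 0 (no effect) to 100 (complete control), relative to controls, 13–15 days after treatment in the greenhouse. Compounds were applied postemergence at the 1- to 4-leaf stage (2–18 cm) to potted plants in peat-based medium.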

wild oat (Avena fatua) = assay: Test D postemergence plant response; settings: for Oat, Wild plant response rating: 31 g ai/ha, scale 0 to 100 (0 no effect, 100 complete control); for Plant response rating, Oat, Wild: scale 0 to 100, 0 no effect, 100 complete control
How it was run: as §2

[5] = 31 g ai/ha, Postemergence, 0 to 100 scale, 0 no effect, 100 complete control
[6] = 31 g ai/ha, Preemergence, 0 to 100 scale where 0 is no effect and 100 is complete control
[7] = 125 g ai/ha, postemergence, 0 to 100 scale, 0 no effect, 100 complete control
[8] = Preemergence, 125 g ai/ha, 0 to 100 scale (0 no effect, 100 complete control)
[9] = Postemergence, 31 g ai/ha, 0 to 100 scale (0 no effect, 100 complete control)
[10] = Postemergence, 500 g ai/ha, 0 to 100 scale (0 no effect, 100 complete control)
[11] = Preemergence, 500 g ai/ha, 0 to 100 scale where 0 is no effect and 100 is complete control

Structure (SMILES) | Plant response rating, Ryegrass, Italian [1, 6] | Plant response rating, Ryegrass, Italian [1, 7] | Plant response rating, Kochia (kochia (Kochia scoparia) [2]; [6]) | Plant response rating, Kochia (kochia (Kochia scoparia) [2]; [7]) | Plant response rating, Ragweed [3, 6] | Plant response rating, Ragweed [3, 7] | Kochia plant response rating (kochia (Kochia scoparia) [4]) | Plant response rating, Kochia (kochia (Kochia scoparia) [4]; 62 g ai/ha) | Plant response rating, Kochia (kochia (Kochia scoparia) [4]; 125 g ai/ha) | Oat, Wild plant response rating (wild oat (Avena fatua)) | Plant response rating, Oat, Wild (wild oat (Avena fatua); 62 g ai/ha) | Plant response rating, Oat, Wild (wild oat (Avena fatua); 125 g ai/ha) | Ryegrass, Italian plant response rating [1, 8] | Kochia plant response rating (kochia (Kochia scoparia) [2]; [8]) | Ragweed plant response rating [3, 8] | Plant response rating, Ryegrass, Italian [1, 10] | Plant response rating, Ryegrass, Italian [1, 11] | Plant response rating, Kochia (kochia (Kochia scoparia) [2]; [10]) | Plant response rating, Kochia (kochia (Kochia scoparia) [2]; [11]) | Plant response rating, Ragweed [3, 10] | further results
FC(F)c1cc(-c2c(Cl)cccc2Oc2ncc(Br)cn2)on1 [Compound 121] | 30 | 70 | 60 | 90 | 10 | 60 | 100 | 100 | 100 | 45 | 70 | 70 | – | – | – | – | – | – | – | – | Plant response rating, Ryegrass, Italian [1, 5]: 50; Plant response rating, Kochia (kochia (Kochia scoparia) [2]; [5]): 90; Plant response rating, Kochia (kochia (Kochia scoparia) [2]; Preemergence, 125 g ai/ha, 0 to 100 scale where 0 is no effect and 100 is complete control): 100; Plant response rating, Ragweed [3, 5]: 50
Fc1cccc(Oc2ncc(Cl)cn2)c1-c1cc(C2CC2)on1 [Compound 130] | 20 | 60 | 50 | 90 | 10 | 60 | 95 | 100 | 100 | 15 | 35 | 60 | 50 | 70 | 20 | – | – | – | – | – | –
FC(F)Oc1cccc(Oc2ncc(Cl)cn2)c1-c1cc(C(F)F)on1 [Compound 131] | 20 | 70 | 0 | 70 | 20 | 70 | 90 | 95 | 100 | 15 | 20 | 35 | 90 | 10 | 60 | – | – | – | – | – | –
FC(F)(Cl)c1cc(-c2ccccc2Oc2ncc(Cl)cn2)no1 [Compound 143] | 0 | 50 | 30 | 100 | 0 | 20 | 100 | 100 | 100 | 0 | 5 | 5 | 60 | 90 | 30 | – | – | – | – | – | Plant response rating, Ryegrass, Italian [1, 9]: 0; Plant response rating, Kochia (kochia (Kochia scoparia) [2]; [9]): 100; Plant response rating, Ragweed [3, 9]: 0
Cc1cc(-c2ccccc2Oc2ncc(Cl)cn2)no1 [Compound 153] | – | 30 | – | 90 | – | 20 | 50 | 40 | 60 | 0 | 0 | 0 | 0 | 20 | 0 | 60 | 20 | 90 | 100 | 100 | Plant response rating, Ragweed [3, 11]: 40
FC(F)(F)c1cc(-c2c(I)cccc2Oc2ncc(Cl)cn2)no1 [Compound 156] | – | 30 | – | 90 | – | 20 | 30 | 45 | – | 0 | 0 | – | 0 | 20 | 0 | 70 | 0 | 90 | 40 | 40 | Plant response rating, Ragweed [3, 11]: 0; Plant response rating (scale 0 to 100), Kochia (kochia (Kochia scoparia) [4]; 8 g ai/ha): 0; Plant response rating (scale 0 to 100), Oat, Wild (wild oat (Avena fatua); 8 g ai/ha): 0
N#Cc1cccc(Oc2ncc(Cl)cn2)c1-c1cc(C(F)(F)F)on1 [Compound 157] | – | 90 | – | 90 | – | 10 | 90 | – | – | 10 | – | – | 20 | 100 | 20 | 100 | 90 | 100 | 100 | 50 | Plant response rating, Ragweed [3, 11]: 70; Plant response rating (scale 0 to 100), Kochia (kochia (Kochia scoparia) [4]; 4 g ai/ha): 0; Plant response rating (scale 0 to 100), Kochia (kochia (Kochia scoparia) [4]; 8 g ai/ha): 20; Plant response rating (scale 0 to 100), Oat, Wild (wild oat (Avena fatua); 4 g ai/ha): 0; Plant response rating (scale 0 to 100), Oat, Wild (wild oat (Avena fatua); 8 g ai/ha): 0
FC(F)(Br)c1cc(-c2ccccc2Oc2ncc(Cl)cn2)no1 [Compound 162] | 0 | 50 | 70 | 100 | 0 | 40 | 100 | 100 | 100 | 5 | 5 | 10 | 40 | 70 | 20 | – | – | – | – | – | Plant response rating, Ryegrass, Italian [1, 9]: 0; Plant response rating, Kochia (kochia (Kochia scoparia) [2]; [9]): 90; Plant response rating, Ragweed [3, 9]: 0
FC(F)(F)c1cc(-c2c(Cl)cccc2Oc2ncc(Cl)cn2)no1 [Compound 169] | – | 20 | – | 90 | – | 20 | 60 | 90 | 95 | 5 | 5 | 10 | 0 | 70 | 10 | 50 | 20 | 90 | 90 | 30 | Plant response rating, Ragweed [3, 11]: 20
FC(F)(F)c1cc(-c2c(Br)cccc2Oc2ncc(Cl)cn2)no1 [Compound 170] | – | 0 | – | 70 | – | 10 | 60 | 85 | 100 | 5 | 5 | 10 | 0 | 30 | 20 | 20 | 20 | 100 | 80 | 50 | Plant response rating, Ragweed [3, 11]: 60
